Measured values as given in patent US9914739B2, “6H-furo[2,3-E]indole compounds for the treatment of hepatitis C” (BRISTOL-MYERS SQUIBB COMPANY, priority 2014, dated 2018).

Key:
HCV = details: cited from earlier work
[1] = system: genotype 1b (Con-1) HCV replicon; test: HCV replicon luciferase assay, genotype 1b; assay type: cell-based; details: Hepatitis C virus, Huh-7, 72 h, Huh-7 cells with genotype 1b HCV replicon, Renilla luciferase, 3 days incubation
Method: The cell lines used to evaluate compounds consist of a human hepatocyte derived cell line (Huh-7) that constitutively expresses a genotype 1b (Con-1) HCV replicon or a genotype 1b (Con-1) HCV replicon with an asparagine replacing the cysteine at amino acid 316, or a genotype 2a (JFH-1) replicon, containing a Renilla luciferase reporter gene. These cells were maintained in Dulbecco's modified Eagle medium (DMEM) containing 10% FBS, 100 U/mL penicillin/streptomycin and 1.0 mg/mL G418.
To evaluate compound efficacy, titrated compounds were transferred to sterile 384-well tissue culture treated plates, and the plates were seeded with HCV replicon cells (50 μL at a density of 2.4×10^3 cells/well) in DMEM containing 4% FBS (final DMSO concentration at 0.5%). After 3 days incubation at 37° C., cells were analyzed for Renilla Luciferase activity using the EnduRen substrate (Promega cat #E6485) according to the manufacturer's directions. Briefly, the EnduRen substrate was diluted in DMEM and then added to the plates to a final concentration of 7.5 μM. The plates were incubated for at least 1 h at 37° C. then read on a Viewlux Imager (PerkinElmer) using a luminescence program. The 50% effective concentration (EC50) was calculated using the four-parameter logistic formula noted above.

Compound: pegylated alpha-interferon
- efficacy as monotherapy compared with unmodified alpha-interferon (HCV; recent clinical results, monotherapy): superior to unmodified alpha-interferon

Compound: C#CC1(NC(=O)c2cccc(-c3cc4c(C(=O)NC)c(-c5ccc(F)cc5)oc4c4cc[nH]c34)c2)CCCCC1 [Compound 4017]
- EC50 ([1]; class symbol): 0.1 to 1 µM

Compound: alpha-interferon and ribavirin
- sustained efficacy (HCV; patients, combination therapy): 40 % of patients

Compound: CNC(=O)c1c(-c2ccc(F)cc2)oc2c1cc(-c1cccc(C(=O)O)c1)c1[nH]ccc12 [Compound 3001, 3-(2-(4-fluorophenyl)-3-(methylcarbamoyl)-6H-furo[2,3-e]indol-5-yl)benzoic acid]
- EC50 ([1]; class symbol): > 1 µM

Compound: CNC(=O)c1c(-c2ccc(F)cc2)oc2c1cc(-c1cccc(C(=O)NC(C)(C)C)c1)c1c2c(C)cn1S(C)(=O)=O [Compound 5003]
- EC50 ([1]; class symbol): > 1 µM

Compound: CNC(=O)c1c(-c2ccc(F)cc2)oc2c1cc(-c1cccc(C(=O)NCC(C)(C)CO)c1)c1[nH]ccc12 [Compound 4008]
- EC50 ([1]; class symbol): 0.1 to 1 µM
- EC50 ([1]; numeric value): 0.13 µM

Compound: CCN(C)C(=O)c1c(-c2ccc(F)cc2)oc2c1cc(OC(C)C)c1c2ccn1CC [Compound 6004]
- EC50 ([1]; class symbol): > 1 µM

Compound: CNC(=O)c1c(-c2ccc(F)cc2)oc2c1cc(-c1cccc(C(=O)NC(C)(C)C)c1)c1c2ccn1C(=O)C(F)(F)F [Compound 3003]
- EC50 ([1]; class symbol): 0.1 to 1 µM
- EC50 ([1]; numeric value): 0.2 µM

Compound: CNC(=O)c1c(-c2ccc(F)cc2)oc2c1cc(-c1cccc(C(=O)NC(C)(C)C)c1)c1[nH]cc(C(=O)C(=O)N(C)C)c12 [Compound 2006]
- EC50 ([1]; class symbol): > 1 µM

Compound: CCc1cn(CC)c2c(OC(C)C)cc3c(C(=O)NC)c(-c4ccc(F)cc4)oc3c12 [Compound 6005]
- EC50 ([1]; class symbol): > 1 µM

Compound: CCc1c[nH]c2c(OC(C)C)cc3c(C(=O)NC)c(-c4ccc(F)cc4)oc3c12 [Compound 6003]
- EC50 ([1]; class symbol): > 1 µM

Compound: CNC(=O)c1c(-c2ccc(F)cc2)oc2c1cc(-c1cccc(C(=O)OC)c1)c1[nH]ccc12 [Compound 1003]
- EC50 ([1]; class symbol): > 1 µM
- EC50 ([1]; numeric value): 1.46 µM

Compound: CNC(=O)c1c(-c2ccc(F)cc2)oc2c1cc(-c1cccc(C(=O)NC(C)(C)C)c1)c1[nH]cc(C(=O)C(=O)O)c12 [Compound 2004, 2-(5-(3-(tert-butylcarbamoyl)phenyl)-2-(4-fluorophenyl)-3-(methylcarbamoyl)-6H-furo[2,3-e]indol-8-yl)-2-oxoacetic acid]
- EC50 ([1]; class symbol): > 1 µM

Compound: CNC(=O)c1c(-c2ccc(F)cc2)oc2c1cc(-c1cccc(C(=O)NC34CC(C3)C4)c1)c1[nH]ccc12 [Compound 4002]
- EC50 ([1]; class symbol): < 0.1 µM

Compound: CNC(=O)c1c(-c2ccc(F)cc2)oc2c1cc(OC(C)C)c1c2ccn1S(C)(=O)=O [Compound 5001, 2-(4-fluorophenyl)-5-isopropoxy-N-methyl-6-(methylsulfonyl)-6H-furo[2,3-e]indole-3-carboxamide]
- EC50 ([1]; class symbol): > 1 µM

Compound: CNC(=O)c1c(-c2ccc(F)cc2)oc2c1cc(-c1cccc(C(=O)NC(C)(C)CCO)c1)c1[nH]ccc12 [Compound 4003]
- EC50 ([1]; class symbol): < 0.1 µM

Compound: C#CC(C)(C)NC(=O)c1cccc(-c2cc3c(C(=O)NC)c(-c4ccc(F)cc4)oc3c3cc[nH]c23)c1 [Compound 4013]
- EC50 ([1]; class symbol): < 0.1 µM

Compound: CCN(CC(C)(C)C)C(=O)c1cccc(-c2cc3c(C(=O)NC)c(-c4ccc(F)cc4)oc3c3ccn(CC)c23)c1 [Compound 6007]
- EC50 ([1]; class symbol): 0.1 to 1 µM

Compound: C#CC(CC)(CC)NC(=O)c1cccc(-c2cc3c(C(=O)NC)c(-c4ccc(F)cc4)oc3c3cc[nH]c23)c1 [Compound 4018]
- EC50 ([1]; class symbol): < 0.1 µM

Compound: CNC(=O)c1c(-c2ccc(F)cc2)oc2c1cc(-c1cccc(C(=O)NCC(C)(C)c3ccccc3)c1)c1[nH]ccc12 [Compound 4016]
- EC50 ([1]; class symbol): 0.1 to 1 µM

Compound: CNC(=O)c1c(-c2ccc(F)cc2)oc2c1cc(-c1cccc(C(=O)NCC(F)(F)c3ccccn3)c1)c1[nH]ccc12 [Compound 4020]
- EC50 ([1]; class symbol): 0.1 to 1 µM

Compound: CNC(=O)c1c(-c2ccc(F)cc2)oc2c1cc(-c1cccc(C(=O)NC(C)(C)C#N)c1)c1[nH]ccc12 [Compound 4022]
- EC50 ([1]; class symbol): < 0.1 µM
- EC50 ([1]; numeric value): 0.015 µM

Compound: CNC(=O)c1c(-c2ccc(F)cc2)oc2c1cc(-c1cccc(C(=O)NC(C)(C)C)c1)c1c2cc(C)n1S(C)(=O)=O [Compound 5005]
- EC50 ([1]; class symbol): > 1 µM

Compound: CNC(=O)c1c(-c2ccc(F)cc2)oc2c1cc(-c1cccc(C(=O)O)c1)c1c2ccn1C(=O)C(F)(F)F [Compound 3002, 3-(2-(4-fluorophenyl)-3-(methylcarbamoyl)-6-(2,2,2-trifluoroacetyl)-6H-furo[2,3-e]indol-5-yl)benzoic acid]
- EC50 ([1]; class symbol): > 1 µM

Compound: C#CC(C)NC(=O)c1cccc(-c2cc3c(C(=O)NC)c(-c4ccc(F)cc4)oc3c3cc[nH]c23)c1 (centres unmarked) [Compound 4021]
- EC50 ([1]; class symbol): 0.1 to 1 µM

Compound: CNC(=O)C(=O)c1c[nH]c2c(OC(C)C)cc3c(C(=O)NC)c(-c4ccc(F)cc4)oc3c12 [Compound 2001]
- EC50 ([1]; class symbol): > 1 µM

Compound: CNC(=O)c1c(-c2ccc(F)cc2)oc2c1cc(-c1cccc(C(=O)NCC(C)(C)c3ccc(Cl)cc3)c1)c1[nH]ccc12 [Compound 4009, 5-(3-((2-(4-chlorophenyl)-2-methylpropyl)carbamoyl)phenyl)-2-(4-fluorophenyl)-N-methyl-6H-furo[2,3-e]indole-3-carboxamide]
- EC50 ([1]; class symbol): 0.1 to 1 µM

Compound: CCn1ccc2c3oc(-c4ccc(F)cc4)c(C(=O)NC)c3cc(OC(C)C)c21 [Compound 6002]
- EC50 ([1]; class symbol): > 1 µM

Compound: CNC(=O)c1c(-c2ccc(F)cc2)oc2c1cc(-c1cccc(C(=O)NC(C)(C)C)c1)c1[nH]ccc12 [Compound 1005, 5-(3-(tert-butylcarbamoyl)phenyl)-2-(4-fluorophenyl)-N-methyl-6H-furo[2,3-e]indole-3-carboxamide]
- EC50 ([1]; class symbol): < 0.1 µM
- EC50 ([1]; numeric value): 0.05 µM

Compound: CNC(=O)c1c(-c2ccc(F)cc2)oc2cc(N(CCO)S(C)(=O)=O)c(C3CC3)cc12 [HCV-796]
- hepatic toxicity (HCV; extended dosing of the combination regimens): hepatic toxicity observed

Compound: CNC(=O)c1c(-c2ccc(F)cc2)oc2c1cc(-c1cccc(C(=O)NC(C)(C)c3ccc(Cl)cc3)c1)c1c2ccn1S(C)(=O)=O [Compound 5006]
- EC50 ([1]; class symbol): < 0.1 µM

Compound: CNC(=O)c1c(-c2ccc(F)cc2)oc2c1cc(-c1cccc(C(=O)NCC(C)(C)C)c1)c1[nH]ccc12 [Compound 4001, 2-(4-fluorophenyl)-N-methyl-5-(3-(neopentylcarbamoyl)phenyl)-6H-furo[2,3-e]indole-3-carboxamide]
- EC50 ([1]; class symbol): < 0.1 µM
- EC50 ([1]; numeric value): 0.083 µM
